Laboratory results published in patent US5314914A, “Methods and compositions for combatting herpes viruses” (BioMega/Boehringer Ingelheim Research Inc., priority 1988, dated 1994).

Key:
[1] = target: HSV-1 ribonucleotide reductase (Human alphaherpesvirus 1 strain 17, UniProt P08543+P10224); assay: HSV-1 ribonucleotide reductase inhibition (reduction of CDP); type: biochemical, herpes simplex virus type 1 (strain F); conditions: for selective inhibition of the viral (HSV-1) ribonucleotide reductase over the cellular ribonucleotide reductase: HSV-1 versus hamster 96-V-2(600) ribonucleotide reductase
[2] = target: T1, hamster 96-V-2(600) ribonucleotide reductase (Cricetulus griseus, UniProt G3I2K8+G3I3B7); assay: Hamster 96-V-2(600) ribonucleotide reductase inhibition (reduction of CDP); type: biochemical, Chinese hamster; conditions: partially purified enzyme 40 μg, in the presence of adenosine triphosphate (4 mM) and magnesium chloride (11.5 mM)
T1 construct: obtained from an overproducing strain of a Chinese hamster lung cell line; endogenous in cells; host or cells: overproducing strain 96-V-2(600) of a Chinese hamster lung cell line; partially purified
Protocol: Hamster 96-V-2(600) ribonucleotide reductase (partially purified) was obtained from an overproducing strain of a Chinese hamster lung cell line as described by W. H. Lewis and P. R. Srinivasan, Mol. Cell Biol., 3, 1053 (1983).
Samples of the HSV-1 ribonucleotide reductase (65 μg with a specific activity of 26 units per mg) were mixed with increasing concentrations of the test compound, i.e. the naphthalene noted in the title of this example, in a series of tubes. Ribonucleotide reductase activity was assayed by monitoring the reduction of cytidine diphosphate (CDP) as described by Cohen et al., supra. The standard reaction mixture, in a final volume of 60 μl, contained: 50 mM, N-2-hydroxyethylpiperazine-N'-2-ethanesulfonic acid (pH 7.8); 4 mM NaF, 30 mM DL-dithiothreitol (DTT); 1 mM bacitracin, 54 μM CDP and 0.25 μCi of [^3 H]CDP. After 30 minutes of incubation at 37° C., the reaction was stopped by immersing the tube in boiling water for 4 minutes. The precipitate was removed by centrifugation. Nucleotides in the supernatant were converted to nucleosides by enzymatic hydrolysis. The deoxyribonucleosides were subsequently separated from the ribonucleosides by ascending polyethyleneimine-celulose chromatography. […] The results, shown in FIGURE 1, are expressed as a percentage of the activity obtained in the controls.

Sequence of HSV-1 ribonucleotide reductase (P08543 whole entry): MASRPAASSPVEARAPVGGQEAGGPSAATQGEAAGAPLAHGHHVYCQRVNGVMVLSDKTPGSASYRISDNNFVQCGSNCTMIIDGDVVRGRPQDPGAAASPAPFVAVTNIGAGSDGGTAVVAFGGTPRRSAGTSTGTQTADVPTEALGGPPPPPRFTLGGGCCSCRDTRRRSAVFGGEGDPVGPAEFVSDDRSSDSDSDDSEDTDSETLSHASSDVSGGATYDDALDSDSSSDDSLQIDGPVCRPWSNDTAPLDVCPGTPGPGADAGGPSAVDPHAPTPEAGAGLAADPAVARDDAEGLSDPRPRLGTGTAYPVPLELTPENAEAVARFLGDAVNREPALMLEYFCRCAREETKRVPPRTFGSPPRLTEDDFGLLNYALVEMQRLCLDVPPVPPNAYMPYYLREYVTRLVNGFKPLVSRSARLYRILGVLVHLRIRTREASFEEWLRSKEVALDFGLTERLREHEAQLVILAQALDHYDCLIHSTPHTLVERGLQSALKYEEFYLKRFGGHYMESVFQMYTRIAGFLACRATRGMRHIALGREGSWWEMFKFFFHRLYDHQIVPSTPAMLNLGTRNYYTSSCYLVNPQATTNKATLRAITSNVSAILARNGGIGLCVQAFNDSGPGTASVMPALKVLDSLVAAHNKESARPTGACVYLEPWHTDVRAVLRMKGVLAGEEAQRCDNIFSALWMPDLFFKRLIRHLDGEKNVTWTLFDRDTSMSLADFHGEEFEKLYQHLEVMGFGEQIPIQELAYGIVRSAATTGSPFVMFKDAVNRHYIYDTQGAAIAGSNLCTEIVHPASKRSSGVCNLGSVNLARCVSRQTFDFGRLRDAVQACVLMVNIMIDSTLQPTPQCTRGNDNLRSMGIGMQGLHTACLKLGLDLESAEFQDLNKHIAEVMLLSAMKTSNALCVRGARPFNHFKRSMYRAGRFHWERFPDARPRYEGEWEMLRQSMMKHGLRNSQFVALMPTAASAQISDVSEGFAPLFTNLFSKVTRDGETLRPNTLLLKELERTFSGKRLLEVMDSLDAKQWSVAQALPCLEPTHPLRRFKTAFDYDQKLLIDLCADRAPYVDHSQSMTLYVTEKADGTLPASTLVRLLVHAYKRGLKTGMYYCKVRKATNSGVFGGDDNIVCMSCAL
Sequence of HSV-1 ribonucleotide reductase (P10224 whole entry): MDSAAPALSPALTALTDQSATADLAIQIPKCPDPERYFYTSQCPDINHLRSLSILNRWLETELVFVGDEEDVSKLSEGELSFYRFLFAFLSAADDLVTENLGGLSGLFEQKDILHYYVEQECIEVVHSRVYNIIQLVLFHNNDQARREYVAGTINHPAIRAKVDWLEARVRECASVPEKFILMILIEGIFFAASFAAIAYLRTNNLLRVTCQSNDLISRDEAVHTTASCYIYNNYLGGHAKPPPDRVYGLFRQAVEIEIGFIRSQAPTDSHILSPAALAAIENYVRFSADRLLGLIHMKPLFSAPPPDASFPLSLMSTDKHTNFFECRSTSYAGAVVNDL
T1 sequence (G3I2K8 entry or part of it): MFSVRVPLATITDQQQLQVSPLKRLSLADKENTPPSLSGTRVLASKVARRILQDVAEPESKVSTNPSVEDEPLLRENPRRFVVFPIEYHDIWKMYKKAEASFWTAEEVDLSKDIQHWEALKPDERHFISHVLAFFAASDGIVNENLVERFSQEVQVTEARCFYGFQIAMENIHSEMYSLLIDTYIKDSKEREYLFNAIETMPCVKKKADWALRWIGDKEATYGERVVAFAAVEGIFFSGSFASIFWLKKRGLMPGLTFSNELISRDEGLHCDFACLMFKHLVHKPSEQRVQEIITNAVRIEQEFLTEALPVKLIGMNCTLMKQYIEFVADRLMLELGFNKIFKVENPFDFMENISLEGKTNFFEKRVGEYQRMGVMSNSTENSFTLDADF
T1 sequence (G3I3B7 entry or part of it): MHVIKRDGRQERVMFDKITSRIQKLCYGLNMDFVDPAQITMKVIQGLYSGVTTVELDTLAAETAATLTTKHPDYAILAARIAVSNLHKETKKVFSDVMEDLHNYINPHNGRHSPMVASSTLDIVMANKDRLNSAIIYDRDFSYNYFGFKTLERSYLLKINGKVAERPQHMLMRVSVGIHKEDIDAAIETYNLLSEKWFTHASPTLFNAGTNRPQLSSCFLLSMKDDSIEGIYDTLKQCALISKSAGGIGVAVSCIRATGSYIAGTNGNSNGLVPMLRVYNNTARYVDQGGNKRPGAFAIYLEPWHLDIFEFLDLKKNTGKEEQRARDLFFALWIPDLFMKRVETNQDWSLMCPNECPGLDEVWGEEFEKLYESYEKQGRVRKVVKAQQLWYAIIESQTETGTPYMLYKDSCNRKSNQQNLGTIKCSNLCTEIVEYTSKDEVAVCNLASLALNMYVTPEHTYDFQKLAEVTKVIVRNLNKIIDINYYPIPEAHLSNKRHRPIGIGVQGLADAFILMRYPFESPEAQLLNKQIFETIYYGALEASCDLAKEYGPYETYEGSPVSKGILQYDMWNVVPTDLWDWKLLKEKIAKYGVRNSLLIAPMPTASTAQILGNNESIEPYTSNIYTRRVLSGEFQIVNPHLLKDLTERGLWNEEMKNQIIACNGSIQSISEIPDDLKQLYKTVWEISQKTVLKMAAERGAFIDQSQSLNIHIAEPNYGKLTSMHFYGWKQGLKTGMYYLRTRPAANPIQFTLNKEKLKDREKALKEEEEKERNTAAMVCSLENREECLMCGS

| Compound | selective inhibition of the viral (HSV-1) ribonucleotide reductase over the cellular ribonucleotide reductase [1] | IC50 [2] | inhibitory effect of increasing concentrations on HSV-1 ribonucleotide reductase activity (FIG. 1, percentage of control activity) ([1]; increasing concentrations of the test compound) |
| --- | --- | --- | --- |
| COC1=C(OC)C(=O)c2cc(OC)ccc2C1=O [2,3,6-trimethoxy-1,4-naphthalenedione] | selective inhibition | – | – |
| COC1=C(OC)C(=O)c2ccccc2C1=O [2,3-dimethoxy-1,4-naphthalenedione] | selective inhibition | – | – |
| COC1=C(OC)C(=O)c2cc(Cl)ccc2C1=O [6-Chloro-2,3-dimethoxy-1,4-naphthalenedione] | selective inhibition | > 250 µM | progressively greater inhibitory effect |
| CCOC1=C(OCC)C(=O)c2cc(Cl)ccc2C1=O [6-chloro-2,3-diethoxy-1,4-naphthalenedione] | selective inhibition | – | – |
| CCCOC1=C(OCCC)C(=O)c2cc(Cl)ccc2C1=O [6-chloro-2,3-dipropoxy-1,4-naphthalenedione] | selective inhibition | – | – |
| COC1=C(OC)C(=O)c2cc(C#N)ccc2C1=O [6-cyano-2,3-dimethoxy-1,4-naphthalenedione] | selective inhibition | – | – |
